Values quoted from earlier work, collected in US20230310434A1, “METHODS OF REDUCING THE LIKELIHOOD OF CARCINOID HEART DISEASE IN PATIENTS WITH NEUROENDOCRINE TUMORS” (TerSera Therapeutics LLC, priority 2022, published 2023).

Key:
[1] = tested on: patients with carcinoid syndrome not adequately controlled with SSA therapy; details: TELESTAR; TE 250 or 500 mg three times daily; patients on stable dose SSA
[2] = tested on: patients with carcinoid syndrome (CS) diarrhea; details: TELECAST
[3] = TE 250 or 500 mg three times daily, patients on stable dose SSA

CCOC(=O)[C@@H](N)Cc1ccc(-c2cc(O[C@H](c3ccc(Cl)cc3-n3ccc(C)n3)C(F)(F)F)nc(N)n2)cc1 [TE, (S)-ethyl 2-amino-3-(4-(2-amino-6-((R)-1-(4-chloro-2-(3-methyl-1H-pyrazol-1-yl)phenyl)-2,2,2-trifluoroethoxy)pyrimidin-4-yl)phenyl)propanoate]
frequency of bowel movements [1]: reduced
urinary 5-HIAA levels [1]: reduced
efficacy when added to SSAs to treat carcinoid syndrome diarrhea ([2]; TE 250 or 500 mg three times daily added to SSAs): effective
frequency of bowel movements [2, 3]: reduced
urinary 5-HIAA levels [2, 3]: reduced
